Results published in ChEMBL document CHEMBL5634072, “The recent advance of Interleukin-1 receptor associated kinase 4 inhibitors for the treatment of inflammation and related diseases” (Eur J Med Chem, 2023).
One block for each compound: values may come before it.

Assays:
[1] = target: T1, Interleukin-1 receptor-associated kinase 4 (Homo sapiens, UniProt Q9NWZ3); assay: Inhibition of IRAK4 (unknown origin) by Ambit kinase assay
T1 sequence (Q9NWZ3 whole entry): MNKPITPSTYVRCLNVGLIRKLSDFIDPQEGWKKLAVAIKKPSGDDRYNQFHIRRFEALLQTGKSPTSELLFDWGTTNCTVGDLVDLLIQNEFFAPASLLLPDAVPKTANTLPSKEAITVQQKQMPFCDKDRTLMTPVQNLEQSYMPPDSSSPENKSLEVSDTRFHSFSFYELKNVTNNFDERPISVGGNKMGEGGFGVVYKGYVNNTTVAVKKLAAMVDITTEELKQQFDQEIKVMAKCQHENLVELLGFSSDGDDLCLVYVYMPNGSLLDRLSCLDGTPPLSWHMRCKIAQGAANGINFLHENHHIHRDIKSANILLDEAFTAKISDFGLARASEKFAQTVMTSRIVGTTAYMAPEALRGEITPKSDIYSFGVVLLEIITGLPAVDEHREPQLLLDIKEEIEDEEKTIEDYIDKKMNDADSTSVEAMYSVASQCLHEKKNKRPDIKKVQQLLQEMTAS

[2] = target: T1, Interleukin-1 receptor-associated kinase 4; assay: Inhibition of IRAK4 (unknown origin)
[3] = target: Protein cereblon/Interleukin-1 receptor-associated kinase 4 (Homo sapiens, UniProt Q96SW2+Q9NWZ3); assay: Binding affinity to CRBN/IRAK4 in human PBMC cells assessed as inhibition of LPS-stimulated IL-6 production incubated for 24 hrs by MSD analysis; type: cell-based
[4] = target: Interleukin-1 receptor-associated kinase 1 (Homo sapiens, UniProt P51617); assay: Inhibition of IRAK1 (unknown origin) by Ambit kinase assay
Cyclic GMP-AMP synthase = Cyclic GMP-AMP synthase (Homo sapiens, UniProt Q8N884); assay: Inhibition of cyclic GMP-AMP synthase (unknown origin)
[5] = target: T2, Protein cereblon/Interleukin-1 receptor-associated kinase 4 (Homo sapiens) (UniProt Q9NWZ3+Q96SW2); assay: PROTAC activity at CRBN/IRAK4 in human PBMC cells assessed as induction of degradation at 0.01 uM measured after 24 hrs by Immuno-blotting analysis relative to control; type: cell-based
[6] = target: T2, Protein cereblon/Interleukin-1 receptor-associated kinase 4 (Homo sapiens); assay: PROTAC activity at CRBN/IRAK4 in human PBMC cells assessed as induction of degradation at 0.1 uM measured after 24 hrs by Immuno-blotting analysis relative to control; type: cell-based
[7] = target: T2, Protein cereblon/Interleukin-1 receptor-associated kinase 4 (Homo sapiens); assay: PROTAC activity at CRBN/IRAK4 in human PBMC cells assessed as induction of degradation at 1 uM measured after 24 hrs by Immuno-blotting analysis relative to control; type: cell-based
[8] = target: T1, Interleukin-1 receptor-associated kinase 4; assay: Inhibition of IRAK4 (unknown origin) by discoverX kinome scan assay

Protein cereblon/Interleukin-1 receptor-associated kinase 4, sequence (Q96SW2 whole entry, one chain of several): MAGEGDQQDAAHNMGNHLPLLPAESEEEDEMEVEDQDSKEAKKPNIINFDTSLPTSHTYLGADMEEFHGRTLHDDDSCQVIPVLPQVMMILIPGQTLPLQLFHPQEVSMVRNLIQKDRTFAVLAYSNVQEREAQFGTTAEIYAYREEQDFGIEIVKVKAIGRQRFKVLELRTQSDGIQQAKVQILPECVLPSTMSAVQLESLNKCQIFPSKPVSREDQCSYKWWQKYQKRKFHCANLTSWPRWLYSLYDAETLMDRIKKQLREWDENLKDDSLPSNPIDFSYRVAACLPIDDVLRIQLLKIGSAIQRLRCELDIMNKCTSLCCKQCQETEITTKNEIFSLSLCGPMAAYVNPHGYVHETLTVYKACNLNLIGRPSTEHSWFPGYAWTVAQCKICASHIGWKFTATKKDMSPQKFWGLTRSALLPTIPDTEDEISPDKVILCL
T2 sequence (Q96SW2 whole entry, looked up, one chain of several): as the sequence (Q96SW2 whole entry, one chain of several) above
Cyclic GMP-AMP synthase, sequence (Q8N884 whole entry): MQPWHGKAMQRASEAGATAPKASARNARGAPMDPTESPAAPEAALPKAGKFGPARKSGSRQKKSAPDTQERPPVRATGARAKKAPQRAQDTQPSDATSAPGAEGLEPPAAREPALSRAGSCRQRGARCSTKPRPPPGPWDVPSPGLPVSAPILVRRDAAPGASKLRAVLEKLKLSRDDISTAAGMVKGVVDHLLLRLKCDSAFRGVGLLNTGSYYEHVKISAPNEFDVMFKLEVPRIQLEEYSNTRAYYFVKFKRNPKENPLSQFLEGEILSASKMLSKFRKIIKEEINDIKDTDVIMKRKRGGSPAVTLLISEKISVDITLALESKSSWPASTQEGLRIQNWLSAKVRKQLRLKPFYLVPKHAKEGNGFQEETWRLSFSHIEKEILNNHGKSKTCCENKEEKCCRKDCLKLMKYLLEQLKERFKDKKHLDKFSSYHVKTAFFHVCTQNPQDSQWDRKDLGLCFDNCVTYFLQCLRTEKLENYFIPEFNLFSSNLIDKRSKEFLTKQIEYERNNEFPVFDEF
Interleukin-1 receptor-associated kinase 1, sequence (P51617 whole entry): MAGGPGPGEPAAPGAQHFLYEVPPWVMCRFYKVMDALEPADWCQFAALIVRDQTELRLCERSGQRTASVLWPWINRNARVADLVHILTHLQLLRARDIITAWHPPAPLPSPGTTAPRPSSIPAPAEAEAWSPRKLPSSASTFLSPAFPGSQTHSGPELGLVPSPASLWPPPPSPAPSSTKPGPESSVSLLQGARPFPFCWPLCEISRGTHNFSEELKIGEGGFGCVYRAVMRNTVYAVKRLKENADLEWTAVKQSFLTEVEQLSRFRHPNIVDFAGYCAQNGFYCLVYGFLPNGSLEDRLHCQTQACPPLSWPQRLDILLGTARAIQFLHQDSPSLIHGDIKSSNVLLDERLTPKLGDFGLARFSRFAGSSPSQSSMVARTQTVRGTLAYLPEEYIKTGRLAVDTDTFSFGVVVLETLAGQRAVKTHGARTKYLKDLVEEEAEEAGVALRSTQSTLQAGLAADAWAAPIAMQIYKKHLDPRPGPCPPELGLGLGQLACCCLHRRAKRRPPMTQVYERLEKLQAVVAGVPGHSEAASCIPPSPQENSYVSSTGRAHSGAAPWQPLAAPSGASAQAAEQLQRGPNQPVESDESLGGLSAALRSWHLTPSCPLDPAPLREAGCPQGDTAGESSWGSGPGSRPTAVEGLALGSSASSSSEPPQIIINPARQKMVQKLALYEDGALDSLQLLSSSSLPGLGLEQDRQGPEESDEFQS

- IC50 [1]: 0.55 nM
SMILES: Cc1cc(-c2nc(C(=O)Nc3cc4cn(CCC(C)(C)O)nc4cc3C(C)(C)O)co2)ccn1

- IC50 [2]: < 10 nM
SMILES: CC(C)CCNC(=O)c1ccc2c(c1)nc(Nc1n[nH]c3ccc(-c4ccccc4OC(F)(F)F)cc13)n2C1CCC(O)CC1 (centres undefined)

- IC50 [3]: < 100 nM
SMILES: O=C1Nc2nc3ccccc3n2Cc2cc(ccn2)-c2ccc(=O)n(n2)Cc2cccc1c2

- IC50 [1]: 1.6 nM
SMILES: CC(C)(O)CCn1cc2cc(NC(=O)c3cccc(C(F)(F)F)n3)c(C3COC3)cc2n1

- IC50 [3]: < 100 nM
SMILES: Cn1cc2c(n1)C(=O)NCCn1cc(cn1)-c1ccc(=O)n(n1)Cc1cccc(c1)C(=O)N2

- IC50 [2]: 165 nM
SMILES: O=C(Nc1ccc(CN2CCNCC2)c(C(F)(F)F)c1)c1cccc(-c2ccc3nc(NC(=O)C4CC4)sc3n2)c1

- IC50 [4]: < 5000 nM
SMILES: CN(C)[C@H]1CC[C@H](Oc2ncnc3sc4c(c23)[C@@H](CCC#N)CC4)CC1

- IC50 (Cyclic GMP-AMP synthase): 2.1 nM
SMILES: Cc1ccn2c(C(=O)C(=O)c3ccccc3)c(-c3ccccc3)nc2c1

- IC50 [3]: 100 nM
SMILES: Cn1cc2c(n1)C(=O)NCC1CN(CCO1)C(=O)OCCn1cc(cn1)-c1cccc(n1)C(=O)N2 (centres undefined)

- EC50 [2]: 195 nM
SMILES: CCO[C@H]1CC[C@@H](n2cc(NC(=O)c3csc(-c4cn[nH]c4)n3)c(-c3nc(F)ccc3F)n2)CC1

- Activity [5]: < 20%
- Activity [6]: > 20%
- Activity [7]: > 50%
SMILES: O=C1CCC(N2C(=O)c3cccc(NCc4cn(CCCNC(=O)c5ccc(-n6cc(NC(=O)c7coc(-c8ccnc(NCC9CC9)c8)n7)c(C(F)(F)F)n6)cc5)cn4)c3C2=O)C(=O)N1 (centres undefined)

- IC50 [8]: 1 nM
SMILES: O=C1Nc2cn(C3CCOCC3)nc2C(=O)NCCOCCCc2cc(ccn2)-c2nc1cs2
